In patent US20140004499A1, “BIOSURFACE ENGINEERING” (priority 2011, published 2014):

Legend:
[1] = system: red blood cells (RBCs); test: Localisation of biotin to RBC surface by conjugation with avidin ALEXAFLUOR (fluorescence microscopy); assay type: cell-based; set-up: key to fluorescent signal intensity grade: 1 (low); 2 (moderate); 3 (bright); 4 (very bright); conditions: for staining at higher concentrations: 100 and 500 μM; for fluorescent signal intensity grade: constructs at concentrations of 10 and 25 μM, avidin ALEXAFLUOR
Procedure: (§1) The use of aqueous solutions of the construct designated Biotin-S3-S4-S2-chol (III) and the construct designated Biotin-S3-S4-S5-DOPE (IV) in the localisation of biotin (F) to cell surfaces was also compared. Solutions of the two constructs were prepared at substantially equimolar concentrations. The use of the solutions was assessed across a concentration range from 0 to 500 μM (0.5 mM). A 0.5 mM solution of the construct designated Biotin-S3-S4-S2-chol (III) was prepared by dissolving 0.4 mg of the construct in 514 μL of PBS. […] A 0.5 mM stock solution of the construct designated Biotin-S3-S4-S5-DOPE (IV) was prepared by dissolving 2 mg of the construct in 1942 μL of phosphate buffered saline (PBS). Each 0.5 mM solution was warmed to 37° C. for 10 minutes, vortexed and sonicated for 30 seconds to ensure complete dissolution of the construct in the aqueous medium. A dilution series was prepared for each construct to provide a total volume of 100 μL at each of the following concentrations: […]. Equal volumes (40 μL) of packed, washed red blood cells (RBCs) and solutions of constructs at different concentrations were mixed in a glass kimble tube. The tubes were incubated at 37° C. for 20 minutes in a water bath with periodic (3 x) agitation. The incubated cells were washed 3× with PBS before being resuspended in a cell preservative (CELPRESOL™) for storage at 4° C. overnight.
(§2) Two equal volumes were taken from each tube and centrifuged (300×g for 2 minutes) to provide two equivalent packed cells volumes for further evaluation. One of each pair of equivalent packed cell volumes was evaluated for localisation of the biofunctional moiety biotin to the surface of the RBCs by conjugation with avidin ALEXAFLUOR™. One of each pair of the equivalent packed cell volumes was evaluated for localisation of the biofunctional moiety biotin to the surface of the RBCs by conjugation to avidinylated beads (DYNABEADS™ M-280).
Conjugation with avidin ALEXAFLUOR™ was evaluated as described in the publication of Oliver et al (2011). An aliquot containing 0.02 mg avidin ALEXAFLUOR™ was mixed with a volume ([…]) of PBS containing BSA to provide a 0.1 mg/mL solution. Equal volumes 20 μL of packed RBCs and the solution of avidin ALEXAFLUOR™ were mixed and incubated at 37° C. for 30 minutes. The cells were then washed 3× with PBS before placing a drop (10 μL) on a glass microscope slide for fluorescent microscopy (WIB filter at 400× magnification). Cells were graded for fluorescence intensity over two micrograph fields of view. Grades determined via the eye piece were correlated with the corresponding photomicrographs (1.9 sec exposure). Grades were assigned according to the following scale: 1 (low), 2 (moderate), 3 (bright) and 4 (very bright). The morphology of the cells was also recorded (“normal” or “poiked”).

[2] = system: red blood cells (RBCs); test: Localisation of biotin to RBC surface by attachment of avidinylated beads (DYNABEADS M-280); assay type: cell-based
Procedure: as §1, with “The tubes were incubated at 37° C. for 20 minutes in a water bath with periodic (3 x) agitation. The incubated cells were washed 3× with PBS before being resuspended in a cell preservative (CELPRESOL™) for storage at 4° C. overnight.” left out
as §2
Conjugation with avidinylated beads (DYNABEADS™ M-280) was performed. […] The attachment of beads to cells was scored at 400× and 800× magnification on a compound microscope. An estimate of the number of beads and the presence of cell clusters was recorded for each group and compared with a negative control.

[3] = Dissolution of construct in PBS; assay type: physicochemical; conditions: 0.5 mM: 0.4 mg in 514 μL of PBS
Procedure: as §1, with “The incubated cells were washed 3× with PBS before being resuspended in a cell preservative (CELPRESOL™) for storage at 4° C. overnight.” left out

[4] = system: O group red blood cells (RBCs); test: Serology of kodecytes with monoclonal preparations; assay type: cell-based; set-up: scale not given here; conditions: kodecytes prepared at 200 μg/mL construct
Procedure: The use of aqueous solutions of the construct designated Atri-S1-chol (I), the construct designated Atri-S1-S5-DOPE (V) and the construct designated Atri-S1-S5-S4-S5-DOPE (VI) in the localisation of Atri (F) to cell surfaces was also compared. (The constructs designated Atri-S1-S5-DOPE (V) and […] (VI) (FIG. 11) were prepared according to Bovin et al (2005) and Bovin et al (2009)). Volumes (40 μL) of packed, washed O group red blood cells (RBCs) were resuspended in equal volumes of solutions of each of the three constructs at a concentration of 200 μg/mL in PBS. The resuspended RBCs were incubated at room temperature for 4 hours prior to storage at 4° C. overnight. Serology was performed as described by Bovin et al (2005) using a range of monoclonal preparations and sera.

SMILES	staining at higher concentrations [1]	fluorescent signal intensity grade [1]	attachment of avidinylated beads, comparison of the two constructs [2]	Serology score ([4]; Anti-A, B Diagast)	Serology score ([4]; Anti-B (ABO2) Diagast)	Serology score ([4]; Anti-B ALBAclone)	Serology score ([4]; Anti-B Biotec)	Serology score ([4]; Anti-B CSL Epiclone)	Serology score ([4]; Anti-B CSL)	Serology score ([4]; Anti-B Diagast)	Serology score ([4]; Anti-B Diagnostics Scotland)	Serology score ([4]; Anti-B Dominion (Novaclone))	Serology score ([4]; Anti-B Gama)	Serology score ([4]; Anti-B Immucor)	Serology score ([4]; Anti-B Millipore)	Serology score ([4]; Anti-B Ortho-BioClone)	Serology score ([4]; Anti-B Ortho-MoltenClone)	Serology score ([4]; Anti-B Span)	Serology score ([4]; Anti-B ortho)	further results
CCCCCCCC/C=C\CCCCCCCC(=O)OCC(COP(=O)([O-])OCCNC(=O)CCCCC(=O)NCC(=O)NCC(=O)N(CC(=O)[O-])CC(=O)NCC(=O)NCC(=O)N(CC(=O)[O-])CC(=O)NCCNC(=O)CN(CC(=O)[O-])C(=O)CNC(=O)CNC(=O)CN(CC(=O)[O-])C(=O)CNC(=O)CNC(=O)CCCC[C@@H]1SC[C@@H]2NC(=O)N[C@@H]21)OC(=O)CCCCCCC/C=C\CCCCCCCC.[Na+].[Na+].[Na+].[Na+].[Na+] (stereo partly drawn) [Biotin-S3-S4-S5-DOPE (IV), reference compound]	poor staining	2	comparable results																	
CC(C)CCC[C@@H](C)[C@H]1CC[C@H]2[C@@H]3CC=C4C[C@@H](OC(=O)NCCCCC(=O)NCC(=O)NCC(=O)N(CC(=O)[O-])CC(=O)NCC(=O)NCC(=O)N(CC(=O)[O-])CC(=O)NCCNC(=O)CN(CC(=O)[O-])C(=O)CNC(=O)CNC(=O)CN(CC(=O)[O-])C(=O)CNC(=O)CNC(=O)CCCC[C@@H]5SC[C@@H]6NC(=O)N[C@@H]65)CC[C@]4(C)[C@H]3CC[C@]12C.[Na+].[Na+].[Na+].[Na+] [Biotin-S3-S4-S2-chol (III)]	poor staining	2	comparable results																	homogeneity of modification of cell surface ([1]; compared with Biotin-S3-S4-S5-DOPE (IV)): more homogenous modification over the entire cell surface and lesser inter-cell variation; fluorescent signal intensity relative to cells prepared using Biotin-S3-S4-S5-DOPE (IV) ([1]; lower concentration ranges (5 to 75 μM)): moderately lower; number of beads attached to each RBC and clustering of RBCs into groups, relative to the other construct ([2]; 25 μM construct): slightly greater; dissolution in PBS [3]: readily dissolved to provide a clear solution
CC(=O)NC1C(OC2C(O)C(CO)OC(OCCCNC(=O)OC3CCC4(C)C(=CCC5C4CCC4(C)C(C(C)CCCC(C)C)CCC54)C3)C2OC2OC(C)C(O)C(O)C2O)OC(CO)C(O)C1O (stereo not drawn) [I]				0	0	0	0	0	0	0	0	0	0	0	0	0	0	0	0	Serology score ([4]; Anti-A (ABO1) Diagast): 0; Serology score ([4]; Anti-A ALBAclone): 0; Serology score ([4]; Anti-A BRG): 0; Serology score ([4]; Anti-A Biotest): 0; Serology score ([4]; Anti-A CSL Epiclone): 0; Serology score ([4]; Anti-A CSL): 0; Serology score ([4]; Anti-A Diagast): 0; Serology score ([4]; Anti-A Diagnostics Scotland): 0; Serology score ([4]; Anti-A Lorne): 0; Serology score ([4]; Anti-A Ortho-BioClone): 0; Serology score ([4]; Anti-A Span): 0; Serology score ([4]; Anti-A ortho): 0; Serology score ([4]; Anti-A, B CSL): 0; Serology score ([4]; Anti-A, B Diagnostics Scotland): 0; Serology score ([4]; Anti-A/B ALBAclone): 0; Serology score ([4]; Anti-A/B CSL Epiclone): 0; Serology score ([4]; Anti-A/B Dominion (Novaclone)): 0; Serology score ([4]; Diagast Anti-A/B (ABO3)): 0
CCCCCCCC/C=C\CCCCCCCC(=O)OCC(COP(=O)([O-])OCCNC(=O)CCCCC(=O)NCC(=O)NCC(=O)N(CC(=O)[O-])CC(=O)NCC(=O)NCC(=O)N(CC(=O)[O-])CC(=O)NCCNC(=O)CN(CC(=O)[O-])C(=O)CNC(=O)CNC(=O)CN(CC(=O)[O-])C(=O)CNC(=O)CNC(=O)CCCCC(=O)NCCCO[C@@H]1O[C@H](CO)[C@H](O)[C@H](O[C@H]2O[C@H](CO)[C@H](O)[C@H](O)[C@H]2NC(C)=O)[C@H]1O[C@@H]1O[C@@H](C)[C@@H](O)[C@@H](O)[C@@H]1O)OC(=O)CCCCCCC/C=C\CCCCCCCC.[Na+].[Na+].[Na+].[Na+].[Na+] (stereo partly drawn) [VI, reference compound]					0	0	0	0	0	0	0	0	0	0	0	0	0	0	0	
CCCCCCCCC=CCCCCCCCC(=O)OCC(COP(=O)([O-])OCCNC(=O)CCCCC(=O)NCCCOC1OC(CO)C(O)C(OC2OC(CO)C(O)C(O)C2NC(C)=O)C1OC1OC(C)C(O)C(O)C1O)OC(=O)CCCCCCCC=CCCCCCCCC.[Na+] (stereo not drawn) [V, reference compound]				0	0	0	0	0	0	0	0	0	0	0	0	0	0	0	0	
